Experimental data from patent US6534637B2, “Synthesis of chlorophenol red glucuronic acid” (Beckman Coulter, Inc., priority 2001, dated 2003).

Key:
[1] = biological target: T1, purified β-glucuronidase (Sigma G-7896) (Escherichia coli, UniProt P05804); experiment: Enzyme assay: suitability of the substrate for detecting β-glucuronidase; type: biochemical, E. coli; conditions: 50 MM sodium phosphate buffer, pH 7.0, 10 mM β-mercaptoethanol, 0.1% Triton X-100
T1 construct: purchased Sigma G-7896
Procedure: The suitability of the chlorophenol red β-D-glucuronic acid substrate (IVA) for detecting β-glucuronidase in a sample was tested following the procedure of Jefferson et al., PNAS (1986) Vol. 83, 8447-8451. The solid product (IVA) was dissolved in water to a final concentration of approximately 100 mM (red-orange product). An aliquot was added to 50 μM of purified β-glucuronidase (Sigma G-7896) in 50 MM sodium phosphate buffer, pH 7.0, 10 mM β-mercaptoethanol and 0.1% Triton X-100.

[2] = Solubility of the GUD substrates (statement); type: physicochemical; conditions: for liquid homogeneous assay formats
[3] = biological target: T2, E. coli α-D-Glucuronidase (Sigma, G7896) (Escherichia coli, UniProt P05804); experiment: Sensitivity of GUD assay (reaction rates by OD, spectrophotometric); type: biochemical
T2 construct: purchased Sigma G7896
Procedure: E. coli […] (Sigma, G7896) was diluted in PBS buffer containing 10 mM DTT and 0.1% Triton X-100 and either substrate p-nitrophenol glucuronide (Sigma N1627) or phenolsulphonphthaleinyl (or chlorophenol red) glucuronide of the present invention. The final concentration of each substrate was1 mM. The final concentration of GUD was 60 pM, 125 pM, 250 pM, 500 pM, or 1000 pM. Readings of Optical Density (OD) were measured at 415 nm for assay with p-nitrophenol glucuronide and at 574 nm for assay with chlorophenol red glucuronide. OD measurements were conducted over 30 minutes at 37° C. in a Beckman DU70 spectrophotometer and the reaction rates were determined in mOD/min. […] Therefore, the sensitivity of the GUD assay utilizing a substrate of the present invention as compared to the sensitivity of GUD assay with a conventional substrate.

T2 sequence (P05804 whole entry): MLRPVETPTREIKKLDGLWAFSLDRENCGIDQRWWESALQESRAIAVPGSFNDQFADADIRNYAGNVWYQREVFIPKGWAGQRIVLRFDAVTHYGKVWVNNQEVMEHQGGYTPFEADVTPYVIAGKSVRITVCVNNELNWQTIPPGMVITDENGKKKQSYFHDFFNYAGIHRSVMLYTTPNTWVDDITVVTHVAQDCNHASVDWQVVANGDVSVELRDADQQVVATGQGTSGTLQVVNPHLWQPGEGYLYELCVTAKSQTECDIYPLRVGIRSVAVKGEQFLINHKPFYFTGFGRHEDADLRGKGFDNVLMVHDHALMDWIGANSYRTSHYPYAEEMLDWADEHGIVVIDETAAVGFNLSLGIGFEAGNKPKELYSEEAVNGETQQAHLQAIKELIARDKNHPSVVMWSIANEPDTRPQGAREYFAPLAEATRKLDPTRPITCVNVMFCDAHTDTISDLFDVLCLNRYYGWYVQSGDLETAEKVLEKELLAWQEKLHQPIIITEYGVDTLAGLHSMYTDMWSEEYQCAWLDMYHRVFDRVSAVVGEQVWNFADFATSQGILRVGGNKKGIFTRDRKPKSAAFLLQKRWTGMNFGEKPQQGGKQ
T1 sequence (P05804 whole entry): as above

**Q.** What does the source list for O=C1C=C/C(=C(/c2ccc(OC3OC(C(=O)O)[C@@H](O)C(O)C3O)c(Cl)c2)c2ccccc2S(=O)(=O)[O-])C=C1Cl.[Na+] (stereo partly drawn) [IVA, Chlorophenol Red β-D-Glucuronic Acid]?
**A.** Suitability as substrate: appearance of a violet product with absorbance maximum at 575 nm [1]: suitable for the detection of β-glucuronidase; Solubility [2]: highly soluble; Reaction rate (mOD/min) relative to the nitrophenol-glucuronide substrate ([3]; each substrate 1 mM, GUD 60-1000 pM, 37° C., 30 minutes, OD at 574 nm vs 415 nm): 5.76 fold; Signal intensity relative to nitro-phenol glucuronide (FIG. 1) ([3]; identical amounts of GUD added to each substrate): about six-fold
